From patent US20260315452A1, “PROTEASE INHIBITORS AND USES THEREOF” (priority 2023, published 2026) come the findings set out here.

This experiment addresses SARS-CoV-2 3CLpro (Severe acute respiratory syndrome coronavirus 2, UniProt P0DTD1). The experiment can be described thus: biochemical. The settings on record: inhibition of SARS-CoV-2 3CLpro; 15 nM 3CLpro, 25 μM fluorogenic substrate, 37° C.; read-out: Inhibitory Activity (IC50).
As a reminder, the IC50 is the concentration needed to halve the response being measured. Consider `CNC(=O)c1cc(Cl)cc([N+](=O)[O-])c1N[C@H]1CN(C(=O)c2cncc3cnccc23)CCC1(F)F` [Compound 175, (S)-5-chloro-2-((4,4-difluoro-1-(2,7-naphthyridine-4-carbonyl)piperidin-3-yl)amino)-N-methyl-3-nitrobenzamide], for which the IC50 is less than 0.1 µM.

Take `CNC(=O)c1cc(Br)cc([N+](=O)[O-])c1N[C@@H]1CCC(C)(C)N(C(=O)c2cncc3ccccc23)C1` [Compound 138, (R)-5-bromo-2-((1-(isoquinoline-4-carbonyl)-6,6-dimethylpiperidin-3-yl)amino)-N-methyl-3-nitrobenzamide]: the IC50 lay in the range of 0.1 to 1 µM.

As to `O=C(c1cc(Br)cc(C(F)(F)F)c1N[C@H]1CN(C(=O)c2cncc3cccnc23)CCC1(F)F)N1CC(O)C1` [Compound 110, (S)-(5-bromo-2-((4,4-difluoro-1-(1,6-naphthyridine-8-carbonyl)piperidin-3-yl)amino)-3-(trifluoromethyl)phenyl)(3-hydroxyazetidin-1-yl)methanone], the IC50 was less than 0.1 µM.

For `CNC(=O)c1cc(Cl)cc([N+](=O)[O-])c1N[C@H]1CN(C(=O)c2cncc3ncccc23)CCC1(F)F` [Compound 176, (S)-5-chloro-2-((4,4-difluoro-1-(1,7-naphthyridine-5-carbonyl)piperidin-3-yl)amino)-N-methyl-3-nitrobenzamide], the IC50 is less than 0.1 µM.

As for `CNC(=O)c1cc(Br)cc([N+](=O)[O-])c1O[C@@H]1CN(C(=O)c2cncc3ccccc23)CCC1(F)F` [Compound 179, (R)-5-bromo-2-((4,4-difluoro-1-(isoquinoline-4-carbonyl)piperidin-3-yl)oxy)-N-methyl-3-nitrobenzamide], the IC50 was 0.1 to 1 µM.

For the molecule `CNC(=O)c1cc(Br)cc([N+](=O)[O-])c1NCC1CN(C(=O)c2cncc3ccccc23)CC1(F)F` (centres unmarked) [Compound 77, 5-bromo-2-(((4,4-difluoro-1-(isoquinoline-4-carbonyl)pyrrolidin-3-yl)methyl)amino)-N-methyl-3-nitrobenzamide], the IC50 lay within 1 to 10 µM.

Consider `O=C(c1cc(Br)cc(C(F)(F)F)c1N[C@H]1CN(C(=O)c2cncc3ccccc23)CCC1(F)F)N1CC(O)C1` [Compound 173, (S)-(5-bromo-2-((4,4-difluoro-1-(isoquinoline-4-carbonyl)piperidin-3-yl)amino)-3-(trifluoromethyl)phenyl)(3-hydroxyazetidin-1-yl)methanone], for which the IC50 was less than 0.1 µM.

On to `CNC(=O)c1cc(Br)cc([N+](=O)[O-])c1N[C@H]1CN(C(=O)c2cncc3ccccc23)C[C@H]1F` [Compound 166, 5-bromo-2-[[(3S,4R)-4-fluoro-1-(isoquinoline-4-carbonyl)pyrrolidin-3-yl]amino]-N-methyl-3-nitro-benzamide], for which the IC50 is less than 0.1 µM.

In the case of `CN(C)C(=O)c1cc(Cl)cc([N+](=O)[O-])c1N[C@H]1CN(C(=O)c2cncc3ccccc23)CC[C@@H]1F` [Compound 177], the IC50 was less than 0.1 µM.

On to `CNC(=O)c1cc(Br)cc([N+](=O)[O-])c1N[C@H]1CN(C(=O)c2cc(=O)[nH]c3ccccc23)CCC1(F)F` [Compound 103, (S)-5-bromo-2-((4,4-difluoro-1-(2-oxo-1,2-dihydroquinoline-4-carbonyl)piperidin-3-yl)amino)-N-methyl-3-nitrobenzamide], for which the IC50 is less than 0.1 µM.

For `CC1(NC(=O)c2cc(Cl)cc([N+](=O)[O-])c2N[C@H]2CN(C(=O)c3cncc4ccccc34)CCC2(F)F)CC1` [Compound 152, (S)-5-chloro-2-((4,4-difluoro-1-(isoquinoline-4-carbonyl)piperidin-3-yl)amino)-N-(1-methylcyclopropyl)-3-nitrobenzamide], the IC50 is less than 0.1 µM.

Turning to `CNC(=O)c1cc(Br)cc([N+](=O)[O-])c1N[C@@H]1CCCC[C@@H]1NC(=O)c1cncc(CNC(=O)OC(C)(C)C)c1` [Compound 5, tert-butyl ((5-(((1S, 2R)-2-((4-bromo-2-(methylcarbamoyl)-6-nitrophenyl)amino)cyclohexyl)carbamoyl)pyridin-3-yl)methyl)carbamate], the IC50 was no less than 10 µM.

As to `O=C(NC1CC(F)(F)C1)c1cc(Br)cc([N+](=O)[O-])c1N[C@@H]1CCCC[C@@H]1NC(=O)c1cncc2ccccc12` [Compound 56, N-((1S, 2R)-2-((4-bromo-2-((3,3-difluorocyclobutyl)carbamoyl)-6-nitrophenyl)amino)cyclohexyl)isoquinoline-4-carboxamide], the IC50 is less than 0.1 µM.

`CNC(=O)c1cc(Br)cc([N+](=O)[O-])c1N[C@H]1CN(C(=O)c2cnc3ccccn23)CCC1(F)F` [Compound 101, (S)-5-bromo-2-((4,4-difluoro-1-(imidazo[1,2-a]pyridine-3-carbonyl)piperidin-3-yl)amino)-N-methyl-3-nitrobenzamide]: the IC50 was less than 0.1 µM.

On to `Cc1c(F)cncc1C(=O)N1CCC2(CCN(c3c(C(=O)NC4CC(F)(F)C4)cc(Br)cc3[N+](=O)[O-])C2)C1` (centres unmarked) [Compound 76, 5-bromo-N-(3,3-difluorocyclobutyl)-2-(7-(5-fluoro-4-methylnicotinoyl)-2,7-diazaspiro[4.4]nonan-2-yl)-3-nitrobenzamide], for which the IC50 was 1 to 10 µM.

As to `COC1CN(C(=O)c2cc(Br)cc([N+](=O)[O-])c2N[C@H]2CN(C(=O)c3cncc4ccccc34)CCC2(F)F)C1` [Compound 38, (S)-(5-bromo-2-((4,4-difluoro-1-(isoquinoline-4-carbonyl)piperidin-3-yl)amino)-3-nitrophenyl)(3-methoxyazetidin-1-yl)methanone], the IC50 was less than 0.1 µM.

`CNC(=O)c1cc(Cl)cc([N+](=O)[O-])c1N[C@H]1CN(C(=O)c2cncc3cc(O)ccc23)CCC1(F)F` [Compound 168, (S)-5-chloro-2-((4,4-difluoro-1-(7-hydroxyisoquinoline-4-carbonyl)piperidin-3-yl)amino)-N-methyl-3-nitrobenzamide]: the IC50 was less than 0.1 µM.

Turning to `CNC(=O)c1cc(Br)cc([N+](=O)[O-])c1N[C@H]1CN(C(=O)c2cncc(-n3cccn3)c2)CCC1(F)F` [Compound 39, (S)-2-((1-(5-(1H-pyrazol-1-yl)nicotinoyl)-4,4-difluoropiperidin-3-yl)amino)-5-bromo-N-methyl-3-nitrobenzamide], the IC50 fell in the range of 0.1 to 1 µM.

Take `CNC(=O)c1cc(Br)cc([N+](=O)[O-])c1N[C@@H]1CCCC[C@@H]1NC(=O)c1cncc(N)c1` [Compound 3, 5-amino-N-((1S, 2R)-2-((4-bromo-2-(methylcarbamoyl)-6-nitrophenyl)amino)cyclohexyl)nicotinamide]: the IC50 lay within 1 to 10 µM.

For the molecule `O=C(NC1CC(F)(F)C1)c1cc(Br)cc([N+](=O)[O-])c1N[C@@H]1COC[C@@H]1NC(=O)c1cncc2ccccc12` [Compound 137, N-((3R,4S)-4-((4-bromo-2-((3,3-difluorocyclobutyl)carbamoyl)-6-nitrophenyl)amino)tetrahydrofuran-3-yl)isoquinoline-4-carboxamide], the IC50 lay within 1 to 10 µM.

Take `CNC(=O)c1cc(Br)cc([N+](=O)[O-])c1N[C@H]1CN(C(=O)c2cnnn2C)CCC1(F)F` [Compound 113, (S)-5-bromo-2-((4,4-difluoro-1-(1-methyl-1H-1,2,3-triazole-5-carbonyl)piperidin-3-yl)amino)-N-methyl-3-nitrobenzamide]: the half-inhibitory concentration (IC50) was no less than 10 µM.

With `CNC(=O)c1cc(Br)cc([N+](=O)[O-])c1N[C@H]1CN(C(=O)c2cncc3ccccc23)CC[C@H]1C` [Compound 141, 5-bromo-2-(((3R, 4R)-1-(isoquinoline-4-carbonyl)-4-methylpiperidin-3-yl)amino)-N-methyl-3-nitrobenzamide], the IC50 lay in the range of 0.1 to 1 µM.

`CNC(=O)c1cc(Br)cc([N+](=O)[O-])c1N[C@H]1CN(C(c2cncc3ccccc23)C(F)(F)F)CCC1(F)F` (some centres unmarked) [Compound 140, 5-bromo-2-(((35)-4,4-difluoro-1-(2,2,2-trifluoro-1-(isoquinolin-4-yl)ethyl)piperidin-3-yl)amino)-N-methyl-3-nitrobenzamide]: the IC50 was no less than 10 µM.

Turning to `CNC(=O)c1cc(Cl)cc([N+](=O)[O-])c1N[C@H]1CN(C(=O)c2cncc3cccc(O)c23)CCC1(F)F` [Compound 174, (S)-5-chloro-2-((4,4-difluoro-1-(5-hydroxyisoquinoline-4-carbonyl)piperidin-3-yl)amino)-N-methyl-3-nitrobenzamide], the IC50 was less than 0.1 µM.

Turning to `CNC(=O)c1cc(Br)cc([N+](=O)[O-])c1NC(C(C)C)C1CN(C(=O)c2cncc(C(F)(F)F)c2)C1` (centres unmarked) [Compound 73, 5-bromo-N-methyl-2-((2-methyl-1-(1-(5-(trifluoromethyl)nicotinoyl)azetidin-3-yl)propyl)amino)-3-nitrobenzamide], the IC50 was in the range of 1 to 10 µM.

`O=C(N[C@@H]1CCOC1)c1cc(Br)cc([N+](=O)[O-])c1N[C@H]1CN(C(=O)c2cncc3ccccc23)CC1(F)F` [Compound 163, 5-bromo-2-(((S)-4,4-difluoro-1-(isoquinoline-4-carbonyl)pyrrolidin-3-yl)amino)-3-nitro-N-((R)-tetrahydrofuran-3-yl)benzamide]: the IC50 is less than 0.1 µM.

Turning to `C[C@@H](NC(=O)c1cc(Br)cc([N+](=O)[O-])c1N1CCC2(CN(C(=O)c3cncc4ccccc34)CC2(F)F)C1)C(F)(F)F` (stereo partly drawn) [Compound 78, 5-bromo-2-(9,9-difluoro-7-(isoquinoline-4-carbonyl)-2,7-diazaspiro[4. 4]nonan-2-yl)-3-nitro-N-((R)-1,1,1-trifluoropropan-2-yl)benzamide], the IC50 is less than 0.1 µM.

As to `CNC(=O)c1cc(Br)cc([N+](=O)[O-])c1O[C@H]1CN(C(=O)c2cncc3ccccc23)CCC1(F)F` [Compound 180, (S)-5-bromo-2-((4,4-difluoro-1-(isoquinoline-4-carbonyl)piperidin-3-yl)oxy)-N-methyl-3-nitrobenzamide], the IC50 was no less than 10 µM.

For `COC(=O)c1cc(Br)cc([N+](=O)[O-])c1N[C@@H]1CCCC[C@@H]1NC(=O)c1cncc2ccccc12` [Compound 51, methyl 5-bromo-2-(((1R, 2S)-2-(isoquinoline-4-carboxamido)cyclohexyl)amino)-3-nitrobenzoate], the IC50 fell in the range of 0.1 to 1 µM.
